What all share (assay type): in vivo
Assay [1] relates to Foxtail, Giant (giant foxtail, Setaria faberi). Kind of assay: Test A1 preemergence, Foxtail, Giant. The method in brief:
(§1)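 Herbicidal response was scored on plants treated either preemergence, by directed spray onto soil of a loam–sand blend after sowing, or postemergence on potted plants at the one- to two-leaf stage, 2–10 cm high. Test chemicals were carried in a non-phytotoxic solvent mix with surfactant.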

Another assay concerns kochia (Bassia scoparia). Put plainly: Test A1 preemergence, kochia. In a few lines:
as §1

The test system of assay [2] is Oat, Wild (wild oat, Avena fatua). Put plainly: Test A1 preemergence, Oat, Wild. In a few lines:
as §1

Assay [3] relates to wheat (Triticum aestivum). Kind of assay: Test A1 postemergence, wheat. Particulars: Postemergence. The method in brief:
as §1

Assay [4] relates to barnyardgrass (Echinochloa crus-galli). Kind of assay: Test B1 flooded paddy test, barnyardgrass. The conditions noted are these: 250 g ai/ha, Flood, applied to paddy water, 2-leaf stage, visually evaluated after 10 to 14 days. The source says: (§2) A dash (-) response means no test result.
For assay [5], the system named is ducksalad (Heteranthera limosa). Kind of assay: Test B1 flooded paddy test, ducksalad. Particulars: 250 g ai/ha, Flood, applied to paddy water, 2-leaf stage, visually evaluated after 10 to 14 days.
Description: as §2

For a further assay, the system named is rice (Oryza sativa). Put plainly: Test B1 flooded paddy test, rice. The conditions noted are these: 250 g ai/ha, Flood, applied to paddy water, 2-leaf stage, visually evaluated after 10 to 14 days.
Description: as §2

Setting [6] is: 31 g ai/ha, 0 to 100 scale (0 no effect, 100 complete control).
Setting [7] is: 125 g ai/ha, 0 to 100 scale, 0 no effect, 100 complete control.
The mark [8] stands for this setting: 31 g ai/ha, 0 to 100 scale (0 no effect, 100 complete control), 10 days.

Take `CCOC(=O)N(c1cc(C(=O)N2CCOCC2)c(C)c(C)c1C)S(=O)(=O)C(F)(F)F` [Compound 325]: the “Plant response rating, Foxtail, Giant” value worked out at 30 in assay [1] (setting [6]) and 100 in assay [1] (setting [7]). In addition, the “Plant response rating, Kochia” value in the assay on kochia (Bassia scoparia) (setting [6]) worked out at 20; in the assay on kochia (Bassia scoparia) (setting [7]) it was 70. Further, the “Plant response rating, Oat, Wild” value in assay [2] (setting [6]) came to 0; in assay [2] (setting [7]) it was 70. Moreover, the “Plant response rating, Wheat” value in assay [3] (setting [8]) is reported as 30; in assay [3] (125 g ai/ha, 0 to 100 scale), 50. Further, the “Plant response rating, Barnyardgrass (0 to 100 scale, 0 is no effect, 100 is complete control)” value in assay [4] came out at 95. In addition, in assay [5], the “Plant response rating, Ducksalad (0 to 100 scale, 0 is no effect, 100 is complete control)” value stood at 95. Further, the “Plant response rating, Rice (0 to 100 scale, 0 is no effect, 100 is complete control)” value in the assay with rice (Oryza sativa) is 15.

On to `Cc1c(NS(=O)(=O)C(F)(F)F)cc(C(=O)N2CCCCC2)c(C)c1C` [Compound 326], for which the “Plant response rating, Foxtail, Giant” value in assay [1] (setting [6]) and in assay [1] (setting [7]) was 100 each time. Further, the “Plant response rating, Kochia” value with kochia (Bassia scoparia) (setting [6]) and with kochia (Bassia scoparia) (setting [7]) was 80 throughout. In addition, the “Plant response rating, Oat, Wild” value in assay [2] (setting [6]) and in assay [2] (setting [7]) was 10 each time. For the same compound, the “Plant response rating, Wheat” value in assay [3] (setting [8]) is reported as 0; in assay [3] (125 g ai/ha, 0 to 100 scale), 0. The “Plant response rating, Barnyardgrass (0 to 100 scale, 0 is no effect, 100 is complete control)” value in assay [4] is 0. Besides, in assay [5], the “Plant response rating, Ducksalad (0 to 100 scale, 0 is no effect, 100 is complete control)” value was 85. In addition, the “Plant response rating, Rice (0 to 100 scale, 0 is no effect, 100 is complete control)” value in the assay with rice (Oryza sativa) was 0.

On to `Cc1c(NS(=O)(=O)C(F)(F)F)cc(C(=O)N2CC(C)OC(C)C2)c(C)c1C` (centres unmarked) [Compound 327], for which the “Plant response rating, Foxtail, Giant” value in assay [1] (setting [6]) and in assay [1] (setting [7]) was 100 throughout. The “Plant response rating, Kochia” value is 0 with kochia (Bassia scoparia) (setting [6]) and 70 with kochia (Bassia scoparia) (setting [7]). Moreover, the “Plant response rating, Oat, Wild” value in assay [2] (setting [6]) was found to be 0; in assay [2] (setting [7]), 70. Further, the “Plant response rating, Wheat” value was 0 in assay [3] (setting [8]) and 50 in assay [3] (125 g ai/ha, 0 to 100 scale). In addition, the “Plant response rating, Barnyardgrass (0 to 100 scale, 0 is no effect, 100 is complete control)” value in assay [4] came to 30. Besides, the “Plant response rating, Ducksalad (0 to 100 scale, 0 is no effect, 100 is complete control)” value in assay [5] amounted to 85. The “Plant response rating, Rice (0 to 100 scale, 0 is no effect, 100 is complete control)” value in the assay with rice (Oryza sativa) stood at 0.

Consider `Cc1c(NS(=O)(=O)C(F)(F)F)cc(C(=O)N2CC(C)OC(C)C2)c(C)c1C` (centres unmarked) [Compound 328], for which the “Plant response rating, Foxtail, Giant” value is reported as 20 in assay [1] (setting [6]) and 100 in assay [1] (setting [7]). For the same compound, the “Plant response rating, Kochia” value with kochia (Bassia scoparia) (setting [6]) stood at 20; in the assay on kochia (Bassia scoparia) (setting [7]), 90. Also, the “Plant response rating, Oat, Wild” value in assay [2] (setting [6]) came to 0; in assay [2] (setting [7]), 30. Besides, the “Plant response rating, Wheat” value is 0 in assay [3] (setting [8]) and 50 in assay [3] (125 g ai/ha, 0 to 100 scale). For the same compound, the “Plant response rating, Barnyardgrass (0 to 100 scale, 0 is no effect, 100 is complete control)” value in assay [4] came to 40. In addition, the “Plant response rating, Ducksalad (0 to 100 scale, 0 is no effect, 100 is complete control)” value in assay [5] stood at 90. Moreover, the “Plant response rating, Rice (0 to 100 scale, 0 is no effect, 100 is complete control)” value in the assay on rice (Oryza sativa) worked out at 0.

As for `Cc1c(C(=O)N2CCCCC2)cc(N(COC(=O)C(C)(C)C)S(=O)(=O)C(F)(F)F)c(C)c1C` [Compound 329, [[(Trifluoromethyl)sulfonyl][2,3,4-trimethyl-5-(1-piperidinylcarbonyl)phenyl]amino]methyl 2,2-dimethylpropanoate], the “Plant response rating, Foxtail, Giant” value is listed as 30 in assay [1] (setting [6]) and 50 in assay [1] (setting [7]). The “Plant response rating, Kochia” value with kochia (Bassia scoparia) (setting [6]) is on record as 0; with kochia (Bassia scoparia) (setting [7]) it was 30. The “Plant response rating, Oat, Wild” value in assay [2] (setting [6]) and in assay [2] (setting [7]) was 0 throughout. The “Plant response rating, Wheat” value is 0 in assay [3] (setting [8]) and 0 in assay [3] (125 g ai/ha, 0 to 100 scale). In assay [4], the “Plant response rating, Barnyardgrass (0 to 100 scale, 0 is no effect, 100 is complete control)” value turned out to be 95. Further, the “Plant response rating, Ducksalad (0 to 100 scale, 0 is no effect, 100 is complete control)” value in assay [5] worked out at 60. Besides, the “Plant response rating, Rice (0 to 100 scale, 0 is no effect, 100 is complete control)” value in the assay with rice (Oryza sativa) is given as 20.

Regarding `CCOC(=O)N(c1cc(C(=O)N2CCCCC2)c(C)c(C)c1C)S(=O)(=O)C(F)(F)F` [Compound 330, Ethyl N-[(trifluoromethyl)sulfonyl]-N-[2,3,4-trimethyl-5-(1-piperidinylcarbonyl)phenyl]carbamate], the figures for the “Plant response rating, Foxtail, Giant” value in assay [1] (setting [6]) and in assay [1] (setting [7]) were 80 and 100, respectively. Besides, the “Plant response rating, Kochia” value in the assay on kochia (Bassia scoparia) (setting [6]) amounted to 10; in the assay with kochia (Bassia scoparia) (setting [7]), 40. The “Plant response rating, Oat, Wild” value in assay [2] (setting [6]) is 0; in assay [2] (setting [7]), 20. Further, the “Plant response rating, Wheat” value is listed as 0 in assay [3] (setting [8]) and 30 in assay [3] (125 g ai/ha, 0 to 100 scale). Besides, the “Plant response rating, Barnyardgrass (0 to 100 scale, 0 is no effect, 100 is complete control)” value in assay [4] is 95. Besides, the “Plant response rating, Ducksalad (0 to 100 scale, 0 is no effect, 100 is complete control)” value in assay [5] is given as 95. Further, in the assay on rice (Oryza sativa), the “Plant response rating, Rice (0 to 100 scale, 0 is no effect, 100 is complete control)” value is 0.

For the compound `Cc1c(C(=O)N2C[C@@H](C)O[C@@H](C)C2)cc(N(COC(=O)C(C)(C)C)S(=O)(=O)C(F)(F)F)c(C)c1C` [Compound 331], the “Plant response rating, Foxtail, Giant” value in assay [1] (setting [6]) is 0; in assay [1] (setting [7]), 70. Besides, the “Plant response rating, Kochia” value in the assay on kochia (Bassia scoparia) (setting [6]) is 0; with kochia (Bassia scoparia) (setting [7]) it was 20. In addition, the “Plant response rating, Oat, Wild” value in assay [2] (setting [6]) and in assay [2] (setting [7]) was 0 each time. For the same compound, the “Plant response rating, Wheat” value in assay [3] (setting [8]) is recorded as 0; in assay [3] (125 g ai/ha, 0 to 100 scale) it was 50. Also, the “Plant response rating, Barnyardgrass (0 to 100 scale, 0 is no effect, 100 is complete control)” value in assay [4] came to 98. For the same compound, the “Plant response rating, Ducksalad (0 to 100 scale, 0 is no effect, 100 is complete control)” value in assay [5] was 80. For the same compound, the “Plant response rating, Rice (0 to 100 scale, 0 is no effect, 100 is complete control)” value in the assay with rice (Oryza sativa) came out at 0.

Source of the values: patent US20230278972A1, “SUBSTITUTED HALOALKYL SULFONANILIDE HERBICIDES” (FMC Corporation, priority 2020, published 2023).
